Measured values: article PMC6201103, “The Small-Compound Inhibitor K22 Displays Broad Antiviral Activity against Different Members of the Family Flaviviridae and Offers Potential as a Panviral Inhibitor” (Antimicrobial Agents and Chemotherapy, 2018)
Several values for one entry are separate records, joined by “and”; a condition that tells them apart may be missing. Equal entries are not always repeated. Where two headings read alike, the source gives them in different places.

Legend:
ZIKV [1] = assay: ZIKV infectivity (TCID50 titration of supernatant) and replication (E protein flow cytometry) in K22-treated Vero cells; type: cell-based, Zika virus; conditions: for IC50: Zika virus, Vero cells, MOI 0.1 TCID50/cell
Procedure: (§1) To test the effect of K22 on flavivirus, hepacivirus, and pestivirus infection, 8 × 10^4 Vero cells were seeded in 12-well dishes (flaviviruses), 5 × 10^4 Huh7-Lunet-N-hCD81-FLuc cells were seeded in 12-well dishes (hepacivirus), or 1 × 10^4 BT cells were seeded in 96-well dishes (pestivirus). At 1 day postseeding, cells were treated with different concentrations of K22 (diluted in DMSO at the concentrations indicated below) for 3 to 4 h and preincubated in 5% CO2 at 37°C. Cells were infected with different viruses at a multiplicity of infection (MOI) of 0.1 TCID50/cell for 1 h at 37°C. For HCV infection, cells were infected with JcR-2a or HCV Jc1 for 3 h at 37°C. Afterwards, cells were washed with prewarmed phosphate-buffered saline (PBS) solution, before cell culture medium supplemented with K22 or the DMSO control at each concentration was added, and incubated at 37°C in a 5% CO2 atmosphere. At 24 h and/or 48 h postinfection (p.i.), supernatants and cells were collected for further analysis.
(§2) Flavivirus replication and the cytopathic effect (CPE) were evaluated from collected cells. Cells in suspension were first labeled with the Fixable Aqua dead cell stain kit (Thermo Fisher Scientific, Waltham, MA, USA) for 30 min on ice, followed by washing with cold PBS. […] After washing, anti-mouse IgG2a conjugated with Alexa Fluor 647 (Thermo Fisher Scientific) was added for 15 min, and the cells were acquired on a FACSCanto II flow cytometer (BD Biosciences, Allschwil, Switzerland). FlowJo (v.9.1) software (TreeStar, Inc., Ashland, OR, USA) was used for analysis. Cell debris and doublets were excluded by electronic gating in forward/side scatter plots. Cell culture supernatants were collected at 24 and 48 h p.i., and the flavivirus titers in Vero cells were determined using the immunoperoxidase monolayer assay (IPMA). For that, supernatants 10-fold diluted in cell culture medium supplemented with 2% (vol/vol) FBS were incubated on Vero cells for 72 h at 37°C in a 5% CO2 atmosphere. At that point, cells were fixed in 4% (wt/vol) PFA for 10 min at room temperature, washed, and immunolabeled with anti-flavivirus group antigen antibody 4G2 diluted in 0.3% (wt/vol) saponin in PBS for 30 min at 37°C and then washed and incubated for another 30 min at 37°C with goat anti-mouse IgG conjugated with horseradish peroxidase (Dako), followed by incubation for 10 to 30 min at room temperature with 3-amino-9-ethylcarbazole (AEC) substrate (Sigma-Aldrich).

JEV = JEV infectivity (TCID50 titration) and replication in K22-treated Vero cells; type: cell-based, Japanese encephalitis virus; conditions: for IC50: Japanese encephalitis virus, MOI 0.1 TCID50/cell
Procedure: as §1, §2

YFV = assay: microbe, parasite or virus in culture; type: cell-based, yellow fever virus; conditions: for IC50: Yellow fever virus, Vero, read-out: IC50, YFV infectivity
WNV = WNV infectivity (TCID50 titration) and replication in K22-treated Vero cells; type: cell-based, West Nile virus; conditions: for IC50: West Nile virus, MOI 0.1 TCID50/cell
Procedure: as §1, §2

USUV = assay: microbe, parasite or virus in culture; type: cell-based, Usutu virus; conditions: for IC50: Usutu virus, Vero, read-out: IC50, USUV infectivity
WESSV = assay: microbe, parasite or virus in culture; type: cell-based, Wesselsbron virus; conditions: for IC50: Wesselsbron virus, Vero, read-out: IC50, WESSV infectivity
HCV [2] = assay: HCV replication, JcR-2a Renilla luciferase reporter virus in Huh7-Lunet-N-hCD81-FLuc cells; type: cell-based, hepatitis C virus
HCV [3] = assay: HCV infectivity, supernatant transferred onto naive Huh7-Lunet-N-hCD81-FLuc cells, Renilla luciferase; type: cell-based, hepatitis C virus
[4] = MTT cell proliferation assay; type: cell-based; conditions: human, Huh7-Lunet-N-hCD81-FLuc cells, 48 h posttreatment
[5] = test system: Huh7-Lunet-N-hCD81-FLuc cells; assay: MTT cell proliferation assay; type: cell-based
BVDV SuwaCp [6] = assay: BVDV SuwaCp replication, qRT-PCR of viral RNA in BT cells; type: cell-based, bovine viral diarrhea virus
BVDV SuwaCp [7] = assay: microbe, parasite or virus in culture; type: cell-based, bovine viral diarrhea virus
BVDV SuwaNcp [8] = assay: BVDV SuwaNcp replication, qRT-PCR of viral RNA in BT cells; type: cell-based, bovine viral diarrhea virus
BVDV SuwaNcp [9] = assay: microbe, parasite or virus in culture; type: cell-based, bovine viral diarrhea virus
[10] = Proliferation, MultiTox-Fluor multiplex cytotoxicity assay on BT cells; type: cell-based, bovine; conditions: bovine, MultiTox-Fluor assay
Procedure: (§3) To evaluate the effect of K22 on cell viability, proliferation, as well as cytotoxicity, uninfected cells were treated with the compound at the concentrations specified above or with DMSO as a control. To determine the effect of K22 on cell viability, Vero cells were collected and labeled with the Fixable Aqua dead cell stain kit (Thermo Fisher Scientific) for 30 min on ice, before the cells were washed with cold PBS and fixed for flow cytometry analysis. As a positive control for cell death, cells were heated at 65°C for 30 min. The mean fluorescence intensity (MFI) was determined by flow cytometry analysis on a FACSCanto II flow cytometer (BD Bioscience) and evaluated using FlowJo (v.9.1) software. […] The compound was added at the concentrations indicated above, and cytotoxicity was determined at 24 and/or 48 h p.i. by determination of the absorbance at 490 nm using a plate reader (VersaMax [Molecular Devices, Wokingham, UK] or an EnSpire 2300 multilabel reader [PerkinElmer, Schwerzenbach, Switzerland]). Cell proliferation following compound treatment was determined using a MultiTox-Fluor multiplex cytotoxicity assay (catalog number G9200; Promega) according to the manufacturer's recommendations. The readout was performed using a multilabel reader (EnSpire 2300 multilabel reader; PerkinElmer) upon excitation at ∼400 nm and emission at ∼505 nm. […]

BT cells [11] = assay: as above; type: cell-based, bovine
Procedure: as §3

[12] = Cytotoxicity, CytoTox 96 nonradioactive cytotoxicity assay on BT cells; type: cell-based, bovine; conditions: bovine, CytoTox 96 assay
Procedure: as §3

BT cells [13] = assay: as above; type: cell-based, bovine; conditions: concentrations used for BVDV
Procedure: as §3

Vero cells = assay: Cytotoxicity on Vero cells (Fixable Aqua dead cell stain flow cytometry; CytoTox 96 assay); type: cell-based; conditions: concentrations of Fig. 1c, confirmed with commercial kit
Procedure: as §3

Vero B4 cells = assay: Proliferation/viability, MultiTox-Fluor multiplex cytotoxicity assay on Vero B4 cells; type: cell-based
Procedure: as §3

ZIKV [14] = assay: Direct effect on virus stability: ZIKV preincubated with K22, then titrated; type: cell-based, Zika virus; conditions: 2 h at room temperature, increasing K22 concentrations
Procedure: Shortly, the compound was diluted in DMSO to reach the desired concentrations (0, 5, 10, 20, 30, and 40 μM) and incubated with the cells for 2 h prior to infection, during infection, or after a period of 2, 6, 10, 14, 18, 22, or 24 h. […] Next, the inoculum was discarded, the cells were washed with prewarmed PBS, and culture medium was added to the wells. Additionally, in order to analyze the direct effect of K22 on virus stability, ZIKV in DMEM was incubated for 2 h at room temperature with the different K22 concentrations and titrated in 10-fold serial dilution on Vero cells for measurement of virus infectivity as described above.

ZIKV [15] = assay: Time-of-addition assay, ZIKV in Vero B4 cells; type: cell-based, Zika virus; conditions: K22 added pre- or postinfection, supernatant at 24 h p.i.
ZIKV [16] = assay: Combination treatment, ZIKV titers (TCID50) in Vero B4 cells; conditions: for combination index (CI): CompuSyn
ZIKV [17] = assay: Immunofluorescence analysis of E protein and dsRNA in ZIKV-infected Vero cells; conditions: 30 μM K22, 48 h p.i.
[18] = Bovine viral diarrhea virus isolates and strains, 48 h

O=C(N/C(=C\c1ccccc1)C(=O)N1CCC(O)(c2ccc(Br)cc2)CC1)c1ccccc1 [K22, (Z)-N-{3-[4-(4-bromophenyl)-4-hydroxypiperidin-1-yl]-3-oxo-1-phenylprop-1-en-2-yl} benzamide]
SI (selectivity index), ZIKV (ZIKV [1]; 24 h p.i.): 35.6
SI (selectivity index), ZIKV (ZIKV [1]; 48 h p.i.): 39.9
IC50 (ZIKV [1]; 24 h p.i.): 2.5 µM
IC50 (ZIKV [1]; 48 h p.i.): 2.1 µM
reduction of ZIKV viral titers (ZIKV [1]; higher concentrations of K22, Vero cells): up to 4 orders of magnitude
SI (selectivity index), JEV (JEV; 24 h p.i.): 193.9
SI (selectivity index), JEV (JEV; 48 h p.i.): 19.1
IC50 (JEV; 24 h p.i., Vero cells): 0.5 µM
IC50 (JEV; 48 h p.i., Vero cells): 4.4 µM
K22 concentrations reducing JEV replication and infectivity (JEV; dose-dependent, Vero cells): ≥ 5 µM
K22 concentrations reducing YFV replication and infectivity (YFV): ≥ 5 µM
SI (selectivity index), YFV (YFV): 24.3 and 36.7
IC50 (YFV; 24 h): 3.7 µM
IC50 (YFV; 48 h): 2.3 µM
SI (selectivity index), WNV (WNV; 24 h p.i.): 32.3
SI (selectivity index), WNV (WNV; 48 h p.i.): 10.0
K22 concentrations significantly reducing WNV replication and infectivity (WNV; Vero cells): ≥ 10 µM
IC50 (WNV; 24 h p.i., Vero cells): 2.8 µM
IC50 (WNV; 48 h p.i., Vero cells): 8.4 µM
IC50 (USUV; 24 h): 9 µM
IC50 (USUV; 48 h): ~10 µM
K22 concentrations necessary to significantly inhibit USUV (USUV; Vero cells): ≥ 20 µM
SI (selectivity index), WESSV (WESSV): 15.2 and 12.5
K22 concentrations necessary to significantly inhibit WESSV (WESSV; Vero cells): ≥ 20 µM
IC50 (WESSV; 24 h): 5.9 µM
IC50 (WESSV; 48 h): 6.8 µM
CC50 relative to IC50 (replication), HCV (HCV [2]; CC50 21.3 μM vs IC50 7.0 μM): 3 fold
IC50 (HCV [2]; Hepatitis C virus, 48 h, read-out: IC50 for replication, HCV): 7 µM
K22 concentrations significantly reducing HCV replication as well as infectivity (HCV [2]; {}): ≥ 20 µM
SI (selectivity index), HCV (HCV [3]): 9.7
IC50 (HCV [3]; Hepatitis C virus, 72 h, read-out: IC50 for infectivity, HCV): 2.2 µM
CC50 at 48 h [4]: 21.3 µM
K22 concentrations affecting the cells used for infection [5]: ≥ 20 µM
IC50 (BVDV SuwaCp [6]; [18]): 15.5 µM
K22 concentrations necessary to significantly reduce viral replication of BVDV SuwaCp (BVDV SuwaCp [6]; qRT-PCR, BT cells): ≥ 20 µM
SI (selectivity index), BVDV SuwaCp (BVDV SuwaCp [7]): >24.6
IC50 (BVDV SuwaCp [7]; Bovine viral diarrhea virus isolates and strains, read-out: IC50 for infectivity, BVDV SuwaCp): 14.2 µM
IC50 (BVDV SuwaNcp [8]; [18]): 34.7 µM
K22 concentrations necessary to significantly reduce viral replication of BVDV SuwaNcp (BVDV SuwaNcp [8]; qRT-PCR, BT cells): ≥ 40 µM
SI (selectivity index), BVDV SuwaNcp (BVDV SuwaNcp [9]): >16.4
K22 concentration necessary to significantly reduce infectivity of BVDV SuwaNcp (BVDV SuwaNcp [9]; BT cells): ≥ 40 µM
IC50 (BVDV SuwaNcp [9]; Bovine viral diarrhea virus isolates and strains, read-out: IC50 for infectivity, BVDV SuwaNcp): 21.4 µM
CC50 [10]: > 350 µM
K22 concentrations affecting cell proliferation (BT cells [11]): ≥ 30 µM
CC50 [12]: > 1000 µM
cellular toxicity of K22 (BT cells [13]): no cellular toxicity
cytotoxic effect of K22 (Vero cells): no cytotoxic effect
K22 concentrations that mildly affected cell proliferation (Vero B4 cells): ≥ 30 µM
effect of preincubation of ZIKV with K22 on infectivity (ZIKV [14]): does not affect ZIKV infectivity
antiviral activity by time of addition (ZIKV [15]): displayed antiviral activity when added at several hours postinfection
reduction of ZIKV viral titers (ZIKV [16]; 5 to 10 μM K22 combined with ≥10 IU IFN-α, 24 h p.i., no further impact on cell proliferation): at least 3 orders of magnitude
combination index (CI) (ZIKV [16]; K22 10 to 30 μM with 10 IU IFN-α, slight synergism): < 1
combination index (CI) (ZIKV [16]; K22 and RBV, concentrations causing only partial inhibition, additive effect): about 1
effect of combination on antiviral effect of K22 (ZIKV [16]; K22 with either 0.1 or 1 μg/ml RBV): did not improve the antiviral effect of K22
viral E protein and dsRNA markers of infection (ZIKV [17]): severely reduced

NC(=O)c1ncn([C@@H]2O[C@H](CO)[C@@H](O)[C@H]2O)n1 [RBV, ribavirin, reference compound]
effect of single treatment on ZIKV viral titers (ZIKV [16]; 10 μg/ml RBV, 24 h p.i., Vero B4 cells): moderately reduced the viral titers
effect of single treatment on ZIKV viral titers (ZIKV [16]; 100 μg/ml and 1,000 μg/ml RBV, 24 h p.i., Vero B4 cells): significantly reduced viral titers

IFN-α
effect of IFN-α on cell viability (Vero B4 cells): no effect on cell viability
IFN-α doses effective against ZIKV (ZIKV [16]; single treatment, 24 h p.i., Vero B4 cells): ≥ 10 IU
